Values of other authors as cited in patent US11760974B2, “Personalized 3D neural culture system for generating human oligodendrocytes and studying myelination in vitro” (The Board of Trustees of the Leland Stanford Junior …, priority 2017, dated 2023).

How the values were obtained:
[1] = test system: PORCN / Wnt3A-mediated TCF-luciferase activation in HEK293 cells; settings: read-out: IC50 Wnt3A-mediated activation of TCF-binding site driving luciferase
Porcn = target: T1, Porcn (Homo sapiens, UniProt Q9H237); settings: read-out: EC50 Porcn inhibitor
T1 sequence (Q9H237 1-461): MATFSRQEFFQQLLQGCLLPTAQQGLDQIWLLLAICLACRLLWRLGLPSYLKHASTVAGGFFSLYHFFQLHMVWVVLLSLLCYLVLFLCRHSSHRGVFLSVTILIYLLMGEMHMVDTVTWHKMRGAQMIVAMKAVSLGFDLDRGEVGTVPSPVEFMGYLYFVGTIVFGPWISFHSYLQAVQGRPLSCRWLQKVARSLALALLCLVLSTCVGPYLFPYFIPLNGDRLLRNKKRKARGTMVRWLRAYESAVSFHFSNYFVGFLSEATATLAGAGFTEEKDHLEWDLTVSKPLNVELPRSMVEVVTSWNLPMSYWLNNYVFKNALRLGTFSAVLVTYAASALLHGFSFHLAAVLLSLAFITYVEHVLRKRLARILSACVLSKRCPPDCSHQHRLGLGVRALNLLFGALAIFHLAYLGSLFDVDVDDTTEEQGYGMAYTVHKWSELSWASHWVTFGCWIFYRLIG

TNKS2 = target: T2, TNKS2 (Homo sapiens, UniProt Q9H2K2)
T2 sequence (Q9H2K2 1-1166): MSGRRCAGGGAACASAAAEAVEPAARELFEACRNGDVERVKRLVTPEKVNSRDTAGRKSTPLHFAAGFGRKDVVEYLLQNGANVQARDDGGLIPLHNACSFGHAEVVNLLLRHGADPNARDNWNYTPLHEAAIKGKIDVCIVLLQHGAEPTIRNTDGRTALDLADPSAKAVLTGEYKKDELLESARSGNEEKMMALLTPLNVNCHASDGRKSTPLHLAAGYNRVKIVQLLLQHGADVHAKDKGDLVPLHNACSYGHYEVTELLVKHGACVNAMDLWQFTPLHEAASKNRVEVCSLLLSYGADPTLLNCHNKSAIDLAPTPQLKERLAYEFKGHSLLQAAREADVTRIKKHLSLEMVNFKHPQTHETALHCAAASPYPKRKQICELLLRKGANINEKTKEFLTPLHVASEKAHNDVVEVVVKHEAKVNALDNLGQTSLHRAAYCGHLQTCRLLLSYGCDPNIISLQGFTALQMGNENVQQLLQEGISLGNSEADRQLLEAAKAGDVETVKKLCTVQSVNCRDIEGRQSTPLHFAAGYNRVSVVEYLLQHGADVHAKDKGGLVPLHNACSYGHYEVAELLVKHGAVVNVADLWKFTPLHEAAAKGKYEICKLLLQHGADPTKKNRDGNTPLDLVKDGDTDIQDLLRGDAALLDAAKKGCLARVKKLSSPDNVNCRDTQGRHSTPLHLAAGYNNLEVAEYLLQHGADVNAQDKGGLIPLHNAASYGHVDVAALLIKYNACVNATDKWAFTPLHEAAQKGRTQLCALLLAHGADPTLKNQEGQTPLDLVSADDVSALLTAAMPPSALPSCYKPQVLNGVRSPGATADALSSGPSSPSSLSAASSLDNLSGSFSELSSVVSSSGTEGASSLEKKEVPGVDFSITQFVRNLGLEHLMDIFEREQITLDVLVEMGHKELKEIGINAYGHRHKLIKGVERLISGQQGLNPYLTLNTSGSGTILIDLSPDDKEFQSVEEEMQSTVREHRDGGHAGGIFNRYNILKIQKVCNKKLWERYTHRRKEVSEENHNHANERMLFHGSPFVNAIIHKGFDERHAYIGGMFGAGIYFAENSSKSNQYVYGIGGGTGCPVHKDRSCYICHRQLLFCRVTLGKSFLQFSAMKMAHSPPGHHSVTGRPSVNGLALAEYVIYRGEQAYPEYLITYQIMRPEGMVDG

[2] = test system: Wnt pathway in L-cells expressing Wnt3A; settings: read-out: IC50 Wnt pathway inhibition
[3] = target: element-binding protein (CBP) (Homo sapiens, UniProt Q92793)
[4] = target: T3, Wnt processing and secretion (Porcn) (Homo sapiens, UniProt Q9H237); settings: cell-free assay
T3 sequence (Q9H237 1-461): T1 sequence (Q9H237 1-461)

[5] = test system: Wnt signaling in TM3 cells (PORCN); settings: read-out: IC50 Wnt signaling inhibition

Sequence of element-binding protein (CBP) (Q92793 whole entry): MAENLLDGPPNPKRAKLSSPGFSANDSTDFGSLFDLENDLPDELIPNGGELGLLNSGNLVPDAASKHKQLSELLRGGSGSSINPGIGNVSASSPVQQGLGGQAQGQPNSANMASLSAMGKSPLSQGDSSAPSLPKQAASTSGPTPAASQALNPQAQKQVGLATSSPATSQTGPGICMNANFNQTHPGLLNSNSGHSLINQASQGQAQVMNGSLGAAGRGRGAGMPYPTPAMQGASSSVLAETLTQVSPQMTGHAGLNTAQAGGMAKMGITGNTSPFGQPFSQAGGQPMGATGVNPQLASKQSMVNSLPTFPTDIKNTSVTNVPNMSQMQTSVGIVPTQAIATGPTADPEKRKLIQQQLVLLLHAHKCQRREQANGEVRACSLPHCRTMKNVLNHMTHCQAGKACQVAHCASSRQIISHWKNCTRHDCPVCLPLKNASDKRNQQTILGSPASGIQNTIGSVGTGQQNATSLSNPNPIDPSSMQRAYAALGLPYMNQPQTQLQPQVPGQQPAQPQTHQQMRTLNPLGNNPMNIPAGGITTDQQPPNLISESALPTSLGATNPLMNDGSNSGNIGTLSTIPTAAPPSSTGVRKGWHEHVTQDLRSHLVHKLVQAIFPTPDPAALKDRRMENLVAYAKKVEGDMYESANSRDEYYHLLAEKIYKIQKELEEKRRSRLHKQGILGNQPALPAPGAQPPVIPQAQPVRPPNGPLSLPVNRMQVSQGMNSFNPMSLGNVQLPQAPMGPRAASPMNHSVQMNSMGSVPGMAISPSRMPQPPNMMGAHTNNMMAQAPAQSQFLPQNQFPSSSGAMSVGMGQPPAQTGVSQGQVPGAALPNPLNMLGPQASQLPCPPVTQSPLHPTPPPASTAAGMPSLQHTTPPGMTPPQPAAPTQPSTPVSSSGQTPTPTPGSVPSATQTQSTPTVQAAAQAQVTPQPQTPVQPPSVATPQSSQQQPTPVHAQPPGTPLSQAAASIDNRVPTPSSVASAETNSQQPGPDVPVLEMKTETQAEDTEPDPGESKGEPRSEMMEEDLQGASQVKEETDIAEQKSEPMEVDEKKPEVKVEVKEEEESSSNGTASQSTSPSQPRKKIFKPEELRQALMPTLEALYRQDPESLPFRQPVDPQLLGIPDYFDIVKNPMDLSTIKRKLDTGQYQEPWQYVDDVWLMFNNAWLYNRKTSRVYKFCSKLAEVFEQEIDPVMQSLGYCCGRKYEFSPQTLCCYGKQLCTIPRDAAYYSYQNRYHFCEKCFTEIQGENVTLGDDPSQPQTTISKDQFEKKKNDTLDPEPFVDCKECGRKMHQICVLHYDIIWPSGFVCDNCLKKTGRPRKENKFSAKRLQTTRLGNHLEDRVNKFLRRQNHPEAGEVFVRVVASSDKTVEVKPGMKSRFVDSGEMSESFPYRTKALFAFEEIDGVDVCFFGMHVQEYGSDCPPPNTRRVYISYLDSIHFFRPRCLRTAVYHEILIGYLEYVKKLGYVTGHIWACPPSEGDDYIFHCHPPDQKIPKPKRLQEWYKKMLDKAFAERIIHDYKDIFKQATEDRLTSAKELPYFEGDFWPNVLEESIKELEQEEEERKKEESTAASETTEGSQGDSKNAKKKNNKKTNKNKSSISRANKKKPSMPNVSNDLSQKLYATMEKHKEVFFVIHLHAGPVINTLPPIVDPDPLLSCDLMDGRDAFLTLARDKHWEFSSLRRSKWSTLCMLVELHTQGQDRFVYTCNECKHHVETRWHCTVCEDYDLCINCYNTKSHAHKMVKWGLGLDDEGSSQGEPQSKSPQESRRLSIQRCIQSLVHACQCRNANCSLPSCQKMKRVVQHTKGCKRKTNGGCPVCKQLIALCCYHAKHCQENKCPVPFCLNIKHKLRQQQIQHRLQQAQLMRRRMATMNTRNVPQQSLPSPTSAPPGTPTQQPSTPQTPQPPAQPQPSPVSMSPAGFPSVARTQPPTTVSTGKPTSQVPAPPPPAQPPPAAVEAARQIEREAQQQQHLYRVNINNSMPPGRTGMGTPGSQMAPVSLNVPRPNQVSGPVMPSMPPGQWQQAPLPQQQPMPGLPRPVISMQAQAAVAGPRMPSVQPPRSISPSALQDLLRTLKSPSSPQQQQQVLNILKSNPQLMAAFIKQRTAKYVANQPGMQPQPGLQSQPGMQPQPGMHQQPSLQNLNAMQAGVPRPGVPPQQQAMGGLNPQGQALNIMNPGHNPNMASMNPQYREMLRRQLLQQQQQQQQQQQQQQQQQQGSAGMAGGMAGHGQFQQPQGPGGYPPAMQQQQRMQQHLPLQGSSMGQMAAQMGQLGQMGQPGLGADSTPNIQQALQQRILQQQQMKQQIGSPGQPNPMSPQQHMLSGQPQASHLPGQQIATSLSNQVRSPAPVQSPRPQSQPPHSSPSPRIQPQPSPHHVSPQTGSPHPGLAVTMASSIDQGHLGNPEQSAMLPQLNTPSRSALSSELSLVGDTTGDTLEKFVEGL

SMILES: Cc1cc(-c2ccc(CC(=O)Nc3ccc(-c4cccnc4)cc3)cc2)ccn1 [Wnt-C59]
- IC50 [1]: 0.074 nM

SMILES: O=C(CSc1nc2c(c(=O)n1-c1ccccc1)SCC2)Nc1ccc(-c2ccccc2)cn1 [IWP-L6]
- EC50 (Porcn): 0.5 nM

SMILES: COc1ccc(-n2c(SCCCN3C(=O)c4cccc5cccc(c45)C3=O)nnc2-c2ccncc2)cc1 [WIKI4]
- IC50 (TNKS2): 15 nM

SMILES: O=C(Nc1cccc2cccnc12)c1ccc(N2C(=O)[C@@H]3[C@H](C2=O)[C@@H]2C=C[C@H]3C2)cc1 [IWR-1-endo]
- IC50 [2]: 180 nM

SMILES: O=C1[C@H](Cc2ccc(O)cc2)N2C(=O)CCN(C(=O)NCc3ccccc3)[C@H]2CN1Cc1cccc2ccccc12 [ICG-001]
- IC50 [3]: 3000 nM

SMILES: Cc1ccc2nc(NC(=O)CSc3nc4c(c(=O)n3-c3ccccc3)SCC4)sc2c1 [IWP-2]
- IC50 [4]: 27 nM

SMILES: Cc1cc(-c2ncc(CC(=O)Nc3ccc(-c4cnccn4)cn3)cc2C)ccn1 [LGK-974]
- IC50 [5]: 0.4 nM
